# Experiment: NMR check of guest exchange in a sealed tube heated to 150° C.
# Format: physicochemical
# Details: sealed NMR tube heated to 150° C., about 1.4 atmospheres, d^6-acetone
# Description: Nuclear magnetic resonance (NMR) spectroscopic investigations were carried out to verify the existence of the spheroidal hexamer in solution. […] FIG. […] The enlarged inset in FIG. 3 is the region of the spectrum displaying the methanol resonances. The peak assignments a, b, and c in the enlarged inset are for diaryl C—H, CH3 of the methanol guest, and CH3 of the methanol in the bulk solvent, respectively. Peak assignments d, e, and f are for the CH2 moiety adjacent to CH in the bridging group, the remaining CH2 groups, and the terminal CH3 group, respectively, on the R substituent. Peak g is the TMS internal standard.
# The most significant features in the spectrum of FIG. 3 are the two methanol peaks, b and c, indicating, respectively, the methanol trapped within the hexameric spheroidal assembly and the methanol in the bulk solvent. Similar work was carried out in d^6-acetone, d^6-dimethyl sulfoxide, and d^8-toluene.
substance,measurement,value
C-tridecylpyrogallol(4)arene,stability of guest/host assembly (methanol guest does not exchange with bulk solvent),stable

# — US20030073872A1, “Hexameric complexes and their preparation” (priority 2001, published 2003)
